We go through ten molecules from patent publication US10647680B2, “Urea compound, preparation method therefor and medical use thereof” (Ancureall Pharmaceutical (Shanghai) Co., Ltd., priority 2016, dated 2020).

Like-named read-outs stand apart in the source and are kept apart here.

The test system of experiment [1] is MV4-11 (FLT3 ITD+/+ mutant type). Put plainly: In vitro growth inhibition (GI50), MV4-11. Format: cell-based, human. Conditions: for growth inhibitory effect on MV4-11 (in words): FLT3-ITD positive cell line MV4-11; for GI50: Homo sapiens; for inhibition activity against the growth of MV4-11 cells compared with AC220: compared with the control compound AC220.
Experiment [2] concerns MOLM-13 (FLT3 ITD+/− mutant type). Nature of the experiment: In vitro growth inhibition (GI50), MOLM-13. Format: cell-based, human. The settings on record: for GI50: Homo sapiens, MOLM-13, Cell lines of leukemia, read-out: GI 50 MOLM-13 FLT3 (ITD+/−); for inhibition activity against the growth of MOLM-13 cells compared with AC220: compared with the control compound AC220.
For the next experiment, the system named is HCC1954 (HER2/ErbB2 amp). Put plainly: In vitro growth inhibition (GI50), HCC1954. Type of experiment: cell-based. The settings on record: Homo sapiens. An excerpt: Tumor cell line is an effective cell model for studying the inhibition of tumor cell growth or proliferation in vitro. In the present invention, a representative tumor cell line was selected to determine the cell growth inhibition activity of the present compound. All cell lines used were from ATCC, DSMZ, and the Cell Bank of the Chinese Academy of Sciences. Cell culture conditions and methods were in accordance with the requirements of each cell line. Cells were subcultured in vitro for no more than 3 passages each time, and as required, single-clone purification and identification of cell lines could be carried out.
The cell culture media used were RPMI1640 (Gibco), MEM (Gibco), McCOY'S5A (Gibco), and IMDM (Gibco). The complete medium was prepared by supplement with 5˜20% fetal calf serum (Gibco), 1% double-antibiotics (10000 units/mL penicillin and 10000 units/mL), 2 mM glutamine or 1 mM sodium pyruvate, respectively.
Human gastric cancer cell line NCI-N87 (HER2/ErbB2 amp, ATCC), human breast cancer cell line HCC1954 (HER2/ErbB2 amp, ATCC) and ZR-75-30 (HER2/ErbB2 amp, ATCC), human adenocarcinoma cell line AU565 (HER2/ErbB2 amp, ATCC), human lung squamous cell carcinoma cell line NCI-H2170 (HER2/ErbB2 amp, ATCC), human bronchioalveolar adenocarcinoma cell line NCI-H1781 (HER2/ErbB2 Ins G776V,C mutant type, ATCC) were cultured with a 1×RPMI1640 complete medium (10% FBS), respectively. Human lung adenocarcinoma cell line Calu-3 (HER2/ErbB2 amp, ATCC) was cultured with 1×MEM, 10% FBS, 1% double antibody, 1% NEAA (Gibco), 2 mM glutamine and 1 mM sodium pyruvate. The human breast cancer cell line SK-BR-3 (HER2/ErbB2 amp, ATCC) was cultured with a McCOY'S5A complete medium (10% FBS).
Adherent cells were digested with 0.25% pancreatin-EDTA (Gibco). The suspension cells were collected by centrifugation. The supernatant was discarded and the cell pellet was resuspended and counted. Different cell concentrations (5˜10×10^4 cells/mL) were prepared according to the growth cycle of each cell line and then seeded on a 96-well plate (Corning), 100 μL/well. The cells were incubated overnight at 37° C., 5% CO2. The compounds were added to the cells on the second day with 2 wells in parallel. The final concentration of organic solvent shall not exceed 1%. The cells were continually incubated for 3 to 5 days, and then subjected to MTT assay.
The compound of the present invention and the control compound were dissolved in DMSO (Sigma) respectively, with the purity of more than 98%. The compound was stored in a concentration of 10 mM at −20° C. and diluted to 2- or 10-fold series prior to use.
Dojindo CCK8 reagent kit was used as MTT assay. THERMO […] FC meter was used as microplate reader.
For adherent cells, culture medium was removed and immediately replaced with the fresh prepared medium which contains 10% CCK8 reagent (100 μL/well). For the suspension cells, CCK8 was directly added to 10% of the final concentration. The cells were continually incubated for 1˜4 h. When a dark yellow color could be observed in the solvent control wells, the absorbance value at OD450 nm was measured and the cell growth rate was calculated according to the following formula: Cell Growth Rate (%)=100*(T−T0)/(C−T0) T=optical density of drug treatment cell well—optical density of blank control well; T0=optical density of cell well before drug treatment—optical density of blank control well; C=optical density of cell well of solvent control group—optical density of blank control well. The concentration value of 50% inhibition of cell growth (GI50) was calculated according to the drug concentration and cell growth rate curve. The experiment was independently repeated 1˜3 times, and subject to biological statistical analysis. 4. Experimental Results
Tumor cell growth inhibition test was performed by selecting representative compounds (compounds 4, 11, 12, 16, 27, 68, 71, 77, 79, 89 and 116 of the present invention). […]

The mark [3] stands for this setting: MV4-11, Cell lines of leukemia, read-out: GI 50 MV4-11 FLT3 (ITD +/+).
The mark [4] stands for this setting: MV4-11, FLT3 ITD +/+, read-out: GI50.
The mark [5] stands for this setting: FLT3-ITD positive-expressing cell line MV4-11, Table 3, read-out: GI50 value, MV4-11.

On to `CC(C)(C)c1cc(NC(=O)Nc2ccc(-n3cnc4cc(O)ccc43)cc2)no1` [Compound 4, 1-(5-tert-butyl-isoxazol-3-yl)-3-[4-(5-hydroxy-benzimidazol-1-yl)-phenyl]-urea], for which the “growth inhibitory effect on MV4-11 (in words)” value (“growth inhibitory effect” for short) in experiment [1] is “strong growth inhibitory effects”. Moreover, the GI50 in experiment [1] (setting [3]) is 0.1 to 1 nM; in experiment [1] (setting [4]), 0.12 nM; in experiment [2], 0.1 to 1 nM; in the experiment on HCC1954 (HER2/ErbB2 amp), more than 2500 nM.
As for `CC(C)(C)c1cc(NC(=O)Nc2ccc(-n3cnc4cc(OCCO)ccc43)cc2)no1` [Compound 11, 1-(5-tert-butyl-isoxazol-3-yl)-3-{4-[5-(2-hydroxy-ethoxyl)-benzimidazol-1-yl]-phenyl]-urea], the “growth inhibitory effect” value in experiment [1] is listed as “strong growth inhibitory effects”. In addition, the GI50 is 0.01 to 0.1 nM in experiment [1] (setting [3]), 0.07 nM in experiment [1] (setting [4]), 0.01 to 0.1 nM in experiment [2] and more than 2500 nM in the experiment on HCC1954 (HER2/ErbB2 amp). In addition, the “inhibition activity against the growth of MV4-11 cells compared with AC220” value in experiment [1] is reported as “stronger inhibition activity”. The “inhibition activity against the growth of MOLM-13 cells compared with AC220” value in experiment [2] is “stronger inhibition activity”.
As to `CC(C)(C)c1cc(NC(=O)Nc2ccc(-n3cnc4cc(OCCN5CCOCC5)ccc43)cc2)no1` [Compound 16, 1-(5-tert-butyl-isoxazol-3-yl)-3-{4-[5-(2-morpholin-4-yl-ethoxyl)-benzimidazol-1-yl]-phenyl}-urea], the GI50 was 0.1 to 1 nM in experiment [1] (setting [3]); 0.039 to 0.8 nM in experiment [1] (setting [5]); 0.48 nM in experiment [1] (setting [4]); 0.1 to 1 nM in experiment [2]; more than 2500 nM with HCC1954 (HER2/ErbB2 amp).
With `CC(C)(C)c1cc(NC(=O)Nc2ccc(-n3cnc4ccc(OCCN5CCOCC5)cc43)cc2)no1` [Compound 27, 1-(5-tert-butyl-isoxazol-3-yl)-3-{4-[6-(2morpholin-4-yl-ethoxyl)-benzimidazol-1-yl]-phenyl}-urea], the GI50 in experiment [1] (setting [3]) is 0.1 to 1 nM; in experiment [1] (setting [5]), 0.039 to 0.8 nM; in experiment [1] (setting [4]), 0.78 nM; in experiment [2], 0.1 to 1 nM; in the experiment with HCC1954 (HER2/ErbB2 amp), more than 2500 nM.
On to `CC(C)(C)c1cc(NC(=O)Nc2ccc(-n3cnc4ccccc43)cc2)[nH]n1` [Compound 68, 1-(4-benzimidazol-1-yl-phenyl)-3-(5-tert-butyl-2H-pyrazol-3-yl)-urea], for which the GI50 in experiment [1] (setting [3]) is 0.1 to 1 nM; in experiment [1] (setting [5]), 0.039 to 0.8 nM; in experiment [1] (setting [4]) it was 0.48 nM; in experiment [2] it was 0.1 to 1 nM; in the experiment with HCC1954 (HER2/ErbB2 amp) it was more than 2500 nM.
On to `COc1ccc2c(c1)ncn2-c1ccc(NC(=O)Nc2cc(C(C)(C)C)n[nH]2)cc1` [Compound 71, 1-(5-tert-butyl-2H-pyrazol-3-yl)-3-[4-(5-methoxyl-benzimidazol-1-yl)-phenyl]-urea], for which the GI50 is 0.01 to 0.1 nM in experiment [1] (setting [3]); 0.039 to 0.8 nM in experiment [1] (setting [5]); 0.039 nM in experiment [1] (setting [4]); 0.01 to 0.1 nM in experiment [2]; more than 2500 nM with HCC1954 (HER2/ErbB2 amp). For the same molecule, the “inhibition activity against the growth of MV4-11 cells compared with AC220” value in experiment [1] was “stronger inhibition activity”. The “inhibition activity against the growth of MOLM-13 cells compared with AC220” value in experiment [2] is reported as “stronger inhibition activity”.
Consider `COCCOc1ccc2c(c1)ncn2-c1ccc(NC(=O)Nc2cc(C(C)(C)C)n[nH]2)cc1` [Compound 77, 1-(5-tert-butyl-2H-pyrazol-3-yl)-3-{4-[5-(2-methoxyl-ethoxyl)-benzimidazol-1-yl]-phenyl}-urea], for which the GI50 in experiment [1] (setting [3]) was 0.01 to 0.1 nM; in experiment [1] (setting [5]), 0.039 to 0.8 nM; in experiment [1] (setting [4]), 0.093 nM; in experiment [2], 0.01 to 0.1 nM; with HCC1954 (HER2/ErbB2 amp) it was more than 2500 nM. Also, the “inhibition activity against the growth of MV4-11 cells compared with AC220” value in experiment [1] is given as “stronger inhibition activity”. Moreover, the “inhibition activity against the growth of MOLM-13 cells compared with AC220” value in experiment [2] is “stronger inhibition activity”.
Regarding `CC(C)(C)c1cc(NC(=O)Nc2ccc(-n3cnc4cc(OCCO)ccc43)cc2)[nH]n1` [Compound 79, 1-(5-tert-butyl-2H-pyrazol-3-yl)-3-{4-[5-(2-hydroxy-ethoxyl)-benzimidazol-1-yl]-phenyl]urea], the “growth inhibitory effect” value in experiment [1] was “strong growth inhibitory effects”. Further, the GI50 in experiment [1] (setting [3]) is 0.01 to 0.1 nM; in experiment [1] (setting [4]) it was 0.047 nM; in experiment [2] it was 0.1 to 1 nM; with HCC1954 (HER2/ErbB2 amp), more than 2500 nM. Also, in experiment [1], the “inhibition activity against the growth of MV4-11 cells compared with AC220” value is reported as “stronger inhibition activity”. Besides, the “inhibition activity against the growth of MOLM-13 cells compared with AC220” value in experiment [2] is on record as “stronger inhibition activity”.
`CC(C)(C)c1cc(NC(=O)Nc2ccc(-n3cnc4cc(OCCN5CCOCC5)ccc43)cc2)[nH]n1` [Compound 89, 1-(5-tert-butyl-2H-pyrazol-3-yl)-3-{4-[5-(2-morpholin-4-yl-ethoxyl)-benzimidazol-1-yl]-phenyl}-urea]: the GI50 is 0.01 to 0.1 nM in experiment [1] (setting [3]); 0.039 to 0.8 nM in experiment [1] (setting [5]); 0.041 nM in experiment [1] (setting [4]); 0.1 to 1 nM in experiment [2]; more than 2500 nM with HCC1954 (HER2/ErbB2 amp). In addition, in experiment [1], the “inhibition activity against the growth of MV4-11 cells compared with AC220” value is given as “stronger inhibition activity”. In addition, the “inhibition activity against the growth of MOLM-13 cells compared with AC220” value in experiment [2] is recorded as “stronger inhibition activity”.
On to `CC(C)(C)c1cc(N)n(C(=O)Nc2ccc(-n3cnc4ccccc43)cc2)n1` [Compound 116, 5-amino-3-tert-butyl-pyrazol-1-carboxylic acid (4-benzimidazol-1-yl-phenyl)-amide], for which the GI50 in experiment [1] (setting [3]) was 10 to 100 nM; in experiment [1] (setting [5]) it was 0.039 to 0.8 nM; in experiment [1] (setting [4]), 1.51 nM; in experiment [2] it was 10 to 100 nM; in the experiment with HCC1954 (HER2/ErbB2 amp), more than 2500 nM.
